Measured values from ChEMBL document CHEMBL1146672, “Discovery and SAR development of 2-(phenylamino) imidazolines as prostacyclin receptor antagonists [corrected]” (Bioorg Med Chem Lett, 2004).

Key:
Assay type in all cases: functional
SH-SY5Y = assay: Compound was tested for antagonism of carbaprostacyclin-stimulated cAMP accumulation in human SH-SY5Y neuroblastoma cells
Rattus norvegicus [1] = assay: Effective dose was determined for analgesic activity in rat on i.p. administration using acetic acid induced writhing assay; settings: ip
Rattus norvegicus [2] = assay: Effective dose was determined against carrageenan-induced paw hyperalgesia in the rat on i.v. administration; settings: iv
Rattus norvegicus [3] = assay: Effective dose was determined against carrageenan-induced paw hyperalgesia in the rat on peroral administration; settings: po

`c1cc(NC2=NCCN2)ccc1Cc1ccc(OCC2CCOCC2)cc1` showed a pKB (SH-SY5Y) of 8.5.

In the case of `CCCCCCOc1ccc(Cc2ccc(NC3=NCCN3)cc2)cc1`, the pKB (SH-SY5Y) is reported as 8.2.

`c1ccc(COc2ccc(Cc3ccc(NC4=NCCN4)cc3)cc2)cc1` gave a pKB (SH-SY5Y) of 7.7.

Compound `c1cc(NC2=NCCN2)ccc1Cc1ccc(OC2CCCC2)cc1` has a pKB (SH-SY5Y) of 8.9.

Compound `c1cc(NC2=NCCN2)ccc1Cc1ccc(OC2CCCCC2)cc1` has a pKB (SH-SY5Y) of 8.6.

`FC(F)(F)COc1ccc(Cc2ccc(NC3=NCCN3)cc2)cc1` showed a pKB (SH-SY5Y) of 8.7.

For `CC(C)Oc1ccc(Cc2ccc(NC3=NCCN3)cc2)cc1`, the ED50 (Rattus norvegicus [1]) was 4 mg/kg, the ED50 (Rattus norvegicus [2]) was 2.8 mg/kg and the pKB (SH-SY5Y) was 8.8. For the same compound, the ED50 (Rattus norvegicus [3]) was 18 mg/kg.

`CCCOc1ccc(Cc2ccc(NC3=NCCN3)cc2)cc1` was tested, and the pKB (SH-SY5Y) was 8.8.

`OCCOc1ccc(Cc2ccc(NC3=NCCN3)cc2)cc1` was tested, and the pKB (SH-SY5Y) was 8.

For `CC(C)COc1ccc(Cc2ccc(NC3=NCCN3)cc2)cc1`, the pKB (SH-SY5Y) was 8.8.

In the case of `CCCCOc1ccc(Cc2ccc(NC3=NCCN3)cc2)cc1`, the pKB (SH-SY5Y) is reported as 9.

For `COCCOc1ccc(Cc2ccc(NC3=NCCN3)cc2)cc1`, the pKB (SH-SY5Y) was 8.

In the case of `CCOc1ccc(Cc2ccc(NC3=NCCN3)cc2)cc1`, the pKB (SH-SY5Y) is reported as 8.2.

`COc1ccc(Cc2ccc(NC3=NCCN3)cc2)cc1` showed a pKB (SH-SY5Y) of 7.7.

With `c1cc(NC2=NCCN2)ccc1Cc1ccc(OC2CCOCC2)cc1` the pKB (SH-SY5Y) was 8.4.
